This passage reports Ki and IC50 results from ChEMBL document CHEMBL1147000, “Synthesis and evaluation of succinoyl-caprolactam gamma-secretase inhibitors” (Bioorg Med Chem Lett, 2006).

Test [1] has as its target 72 kDa type IV collagenase (Homo sapiens, UniProt P08253). As to the kind of experiment: Inhibition of MMP2.
Test [2] deals with T1, Matrilysin (Homo sapiens, UniProt P09237).
T1 sequence (P09237 whole entry): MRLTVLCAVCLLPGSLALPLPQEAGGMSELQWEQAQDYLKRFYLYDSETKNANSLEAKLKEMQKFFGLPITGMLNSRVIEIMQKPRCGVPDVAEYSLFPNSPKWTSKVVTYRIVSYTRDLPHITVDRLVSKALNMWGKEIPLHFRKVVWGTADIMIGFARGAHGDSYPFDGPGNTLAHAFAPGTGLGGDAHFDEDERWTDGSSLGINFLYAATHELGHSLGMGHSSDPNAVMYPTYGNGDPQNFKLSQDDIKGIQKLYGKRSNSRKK
As to the kind of experiment: Inhibition of MMP7.

Test [3] addresses Matrix metalloproteinase-9 (Homo sapiens, UniProt P14780). As to the kind of experiment: Inhibition of MMP9.
In test [4] the target is Stromelysin-2 (Homo sapiens, UniProt P09238). The experiment in a line: Inhibition of MMP10.
Chain of Stromelysin-2 (P09238 whole entry): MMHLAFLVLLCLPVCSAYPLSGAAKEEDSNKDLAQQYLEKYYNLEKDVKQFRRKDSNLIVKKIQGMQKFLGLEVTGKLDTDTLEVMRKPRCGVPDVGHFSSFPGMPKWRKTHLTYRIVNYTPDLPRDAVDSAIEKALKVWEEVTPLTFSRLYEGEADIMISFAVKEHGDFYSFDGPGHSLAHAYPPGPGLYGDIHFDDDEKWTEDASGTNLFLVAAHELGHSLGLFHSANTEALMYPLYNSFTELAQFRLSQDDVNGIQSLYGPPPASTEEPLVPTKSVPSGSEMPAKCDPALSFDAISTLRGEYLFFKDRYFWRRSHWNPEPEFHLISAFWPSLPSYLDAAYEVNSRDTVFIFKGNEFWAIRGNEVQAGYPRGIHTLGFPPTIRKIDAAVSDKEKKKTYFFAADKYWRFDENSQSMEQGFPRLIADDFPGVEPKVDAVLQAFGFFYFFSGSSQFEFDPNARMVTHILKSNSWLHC
For test [5], the target named is Matrix metalloproteinase-14 (Homo sapiens, UniProt P50281). As to the kind of experiment: Inhibition of MMP14.
In test [6] the target is T2, Interstitial collagenase (Homo sapiens, UniProt P03956).
T2 sequence (P03956 whole entry): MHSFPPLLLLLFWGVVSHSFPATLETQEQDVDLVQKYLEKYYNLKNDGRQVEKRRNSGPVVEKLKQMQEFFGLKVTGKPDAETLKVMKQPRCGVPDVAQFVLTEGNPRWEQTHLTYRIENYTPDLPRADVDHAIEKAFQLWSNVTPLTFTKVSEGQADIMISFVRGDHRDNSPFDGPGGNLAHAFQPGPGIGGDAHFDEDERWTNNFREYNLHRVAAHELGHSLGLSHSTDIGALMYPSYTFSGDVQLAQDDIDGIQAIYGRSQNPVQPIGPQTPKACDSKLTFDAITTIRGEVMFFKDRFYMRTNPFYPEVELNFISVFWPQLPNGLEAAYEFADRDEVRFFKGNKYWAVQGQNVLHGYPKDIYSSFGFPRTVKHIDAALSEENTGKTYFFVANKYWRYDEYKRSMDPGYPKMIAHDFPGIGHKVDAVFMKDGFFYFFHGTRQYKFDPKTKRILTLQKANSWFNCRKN
As to the kind of experiment: Inhibition of MMP1.

The target in test [7] is Collagenase 3 (Homo sapiens, UniProt P45452). The experiment in a line: Inhibition of MMP13.
Test [8] addresses Disintegrin and metalloproteinase domain-containing protein 17 (Homo sapiens, UniProt P78536).
The subject of test [9] is HEK293. The experiment in a line: Inhibition of beta-amyloid peptide production in HEK293 cell line. Conditions: Homo sapiens. It counts as functional, cell-based.

Chain of Disintegrin and metalloproteinase domain-containing protein 17 (P78536 whole entry, the tested form may be a part): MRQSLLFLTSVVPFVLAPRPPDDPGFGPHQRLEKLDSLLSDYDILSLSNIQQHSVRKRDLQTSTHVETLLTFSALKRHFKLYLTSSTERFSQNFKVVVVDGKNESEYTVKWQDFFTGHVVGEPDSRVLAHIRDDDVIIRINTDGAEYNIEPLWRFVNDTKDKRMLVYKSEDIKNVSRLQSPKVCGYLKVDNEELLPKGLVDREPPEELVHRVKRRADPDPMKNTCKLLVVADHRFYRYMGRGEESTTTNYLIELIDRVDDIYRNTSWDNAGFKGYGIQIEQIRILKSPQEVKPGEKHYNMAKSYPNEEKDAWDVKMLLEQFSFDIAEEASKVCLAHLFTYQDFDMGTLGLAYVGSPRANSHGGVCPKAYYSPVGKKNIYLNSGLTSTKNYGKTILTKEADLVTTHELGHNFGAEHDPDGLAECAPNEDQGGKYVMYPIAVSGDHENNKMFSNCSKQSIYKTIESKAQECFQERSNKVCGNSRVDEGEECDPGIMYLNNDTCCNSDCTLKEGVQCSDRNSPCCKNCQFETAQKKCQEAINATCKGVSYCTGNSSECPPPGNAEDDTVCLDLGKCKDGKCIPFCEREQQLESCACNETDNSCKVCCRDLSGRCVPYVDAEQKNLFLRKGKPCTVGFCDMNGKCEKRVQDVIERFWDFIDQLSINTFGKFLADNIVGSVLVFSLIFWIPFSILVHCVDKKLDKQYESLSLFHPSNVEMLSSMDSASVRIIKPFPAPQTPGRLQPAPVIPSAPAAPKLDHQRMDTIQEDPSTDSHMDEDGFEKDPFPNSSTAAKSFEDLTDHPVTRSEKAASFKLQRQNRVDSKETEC
Chain of 72 kDa type IV collagenase (P08253 whole entry): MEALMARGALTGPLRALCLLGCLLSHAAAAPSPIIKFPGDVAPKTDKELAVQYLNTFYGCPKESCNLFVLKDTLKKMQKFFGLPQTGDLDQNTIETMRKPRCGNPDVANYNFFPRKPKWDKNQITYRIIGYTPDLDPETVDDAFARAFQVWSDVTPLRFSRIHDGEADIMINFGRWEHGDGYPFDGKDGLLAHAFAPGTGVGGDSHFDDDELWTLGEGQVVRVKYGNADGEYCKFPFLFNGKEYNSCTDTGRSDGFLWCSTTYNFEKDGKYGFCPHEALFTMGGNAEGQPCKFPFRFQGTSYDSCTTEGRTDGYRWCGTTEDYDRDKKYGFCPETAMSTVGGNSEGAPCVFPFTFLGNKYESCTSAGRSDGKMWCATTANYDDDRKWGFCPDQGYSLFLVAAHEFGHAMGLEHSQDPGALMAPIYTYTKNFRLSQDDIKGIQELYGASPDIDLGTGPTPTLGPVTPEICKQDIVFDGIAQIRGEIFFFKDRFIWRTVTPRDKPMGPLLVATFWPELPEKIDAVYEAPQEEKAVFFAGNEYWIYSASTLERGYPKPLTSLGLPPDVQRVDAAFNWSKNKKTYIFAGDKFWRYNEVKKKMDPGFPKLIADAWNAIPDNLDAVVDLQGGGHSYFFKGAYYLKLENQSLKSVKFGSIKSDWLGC
Chain of Matrix metalloproteinase-9 (P14780 whole entry): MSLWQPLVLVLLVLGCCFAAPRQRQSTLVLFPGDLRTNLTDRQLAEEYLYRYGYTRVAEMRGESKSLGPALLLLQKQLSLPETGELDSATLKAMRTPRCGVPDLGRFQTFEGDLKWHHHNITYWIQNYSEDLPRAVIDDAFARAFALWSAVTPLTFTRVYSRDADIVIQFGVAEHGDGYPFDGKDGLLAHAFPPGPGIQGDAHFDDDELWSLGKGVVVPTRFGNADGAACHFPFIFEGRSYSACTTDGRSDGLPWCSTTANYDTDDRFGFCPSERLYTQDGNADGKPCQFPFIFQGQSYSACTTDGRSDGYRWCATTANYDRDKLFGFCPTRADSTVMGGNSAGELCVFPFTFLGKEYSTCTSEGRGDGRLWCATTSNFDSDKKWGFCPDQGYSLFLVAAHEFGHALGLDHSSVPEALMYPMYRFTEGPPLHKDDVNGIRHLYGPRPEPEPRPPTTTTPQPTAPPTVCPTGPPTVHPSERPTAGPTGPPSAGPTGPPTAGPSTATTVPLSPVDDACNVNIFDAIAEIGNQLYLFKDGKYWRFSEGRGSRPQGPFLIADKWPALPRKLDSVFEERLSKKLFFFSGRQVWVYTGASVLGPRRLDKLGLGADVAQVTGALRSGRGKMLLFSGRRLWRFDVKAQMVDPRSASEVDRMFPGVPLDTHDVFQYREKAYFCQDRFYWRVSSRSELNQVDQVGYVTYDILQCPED

Usually Ki stands for a measure of affinity in units of concentration, obtained from inhibition or displacement. A lower Ki goes with tighter binding. As usually defined, the IC50 is the point on the concentration scale where inhibition reaches its midpoint. As to `CCC[C@H](C(=O)NO)[C@@H](CC(C)C)C(=O)N[C@H]1CCCCN(Cc2cccc(Oc3ccccc3)c2)C1=O`, the Ki stood at 7 nM in [1]; 660 nM in test [2]; 5 nM in [3]; 190 nM in test [4]; 1200 nM in [5]; 21 nM in test [6]. In addition, the Ki was 10 nM in test [7] and 4 nM in test [8]. Also, the IC50 in test [9] stood at 500 nM.
